Source: patent US20140073639A1 (priority 2012, published 2014)
Converted amounts (≈) assume the structure as drawn.

Columns and labels:
B. Anthracis = assay: microbe, parasite or virus in culture; format: cell-based; conditions: for inhibition at 10 µM / inhibition at 30 µM / inhibition at 3 µM: Bacillus anthracis; for inhibition at 10 µM: read-out: B. Anthracis 10 μM (growth inhibition); for inhibition at 30 µM: read-out: B. Anthracis 30 μM (growth inhibition); for inhibition at 3 µM: read-out: B. Anthracis 3 μM (growth inhibition)
S. MRSA = assay: microbe, parasite or virus in culture; format: cell-based; conditions: for inhibition at 10 µM / inhibition at 30 µM / inhibition at 3 µM: Staphylococcus aureus, MRSA; for inhibition at 10 µM: read-out: S. MRSA 10 μM (growth inhibition); for inhibition at 30 µM: read-out: S. MRSA 30 μM (growth inhibition); for inhibition at 3 µM: read-out: S. MRSA 3 μM (growth inhibition)
[1] = format: cell-based

| Structure (SMILES) | MIC, 25% Serum [1] [µM] | MIC, No Serum [1] [µM] | also measured |
| --- | --- | --- | --- |
| O=C1Nc2ccc(Br)cc2/C1=C1/NC(=S)N(C(Cc2ccccc2)C(=O)O)C1=O (stereo not shown) [Cmpd 31] | >250 | 250 (≈ 118 µg/mL) | inhibition at 10 µM (B. Anthracis; 10 μM): 2.5%; inhibition at 30 µM (B. Anthracis; 30 μM): 88%; inhibition at 10 µM (S. MRSA; 10 μM): -8%; inhibition at 30 µM (S. MRSA; 30 μM): -2.22% |
| O=C1Nc2cc(Cl)c(Br)cc2/C1=C1/NC(=S)N(C(Cc2ccccc2)C(=O)O)C1=O (stereo not shown) [Cmpd 32] | >250 |  | inhibition at 3 µM (B. Anthracis; 3 μM): 11.3%; inhibition at 10 µM (B. Anthracis; 10 μM): 40.2%; inhibition at 30 µM (B. Anthracis; 30 μM): 98.8%; inhibition at 3 µM (S. MRSA): -11.9%; inhibition at 10 µM (S. MRSA; 10 μM): -19.4%; inhibition at 30 µM (S. MRSA; 30 μM): 93.8% |
| O=C(O)C(Cc1ccccc1)N1C(=O)/C(=C\c2ccc(-c3ccc(Cl)cc3)o2)NC1=S (stereo not shown) [Cmpd 38] | >250 | 62.5 (≈ 28.3 µg/mL) | inhibition at 3 µM (B. Anthracis; 3 μM): 4.99%; inhibition at 10 µM (B. Anthracis; 10 μM): 68.9%; inhibition at 30 µM (B. Anthracis; 30 μM): 99.7%; inhibition at 3 µM (S. MRSA): -13.5%; inhibition at 10 µM (S. MRSA; 10 μM): -16.9%; inhibition at 30 µM (S. MRSA; 30 μM): 86.6% |
| CCC(C(=O)O)N1C(=O)/C(=C\c2ccc(-c3ccc(Cl)c(Cl)c3)o2)NC1=S (stereo not shown) [Cmpd 44] | >250 | 250 (≈ 106 µg/mL) | inhibition at 3 µM (B. Anthracis; 3 μM): 4.13%; inhibition at 10 µM (B. Anthracis; 10 μM): 97.2%; inhibition at 30 µM (B. Anthracis; 30 μM): 94%; inhibition at 3 µM (S. MRSA): -2.47%; inhibition at 10 µM (S. MRSA; 10 μM): 4.53%; inhibition at 30 µM (S. MRSA; 30 μM): 92.9% |
| O=C(O)C(Cc1ccccc1)N1C(=O)/C(=C\c2ccc(-c3ccc(Cl)c(Cl)c3)o2)NC1=S (stereo not shown) [Cmpd 46] | >250 | 15.6 (≈ 7.6 µg/mL) | B. Anthracis 3 μM (growth inhibition) (B. Anthracis; 3 μM): 108.4; B. Anthracis 10 μM (growth inhibition) (B. Anthracis; 10 μM): 108.46; B. Anthracis 30 μM (growth inhibition) (B. Anthracis; 30 μM): 106.96; S. MRSA 3 μM (growth inhibition) (S. MRSA): −17.39; S. MRSA 10 μM (growth inhibition) (S. MRSA; 10 μM): 93.71; S. MRSA 30 μM (growth inhibition) (S. MRSA; 30 μM): 103.37 |
| O=C(O)[C@@H](Cc1ccccc1)N1C(=O)/C(=C\c2ccc(-c3ccc(Cl)c(Cl)c3)o2)NC1=S [Cmpd 47] | 250 (≈ 122 µg/mL) | 7.8 (≈ 3.8 µg/mL) | inhibition at 3 µM (B. Anthracis; 3 μM): 9.41%; inhibition at 10 µM (B. Anthracis; 10 μM): 107%; inhibition at 30 µM (B. Anthracis; 30 μM): 107%; inhibition at 3 µM (S. MRSA): -13.8%; inhibition at 10 µM (S. MRSA; 10 μM): 84.4%; inhibition at 30 µM (S. MRSA; 30 μM): 103% |
| CC(=O)C(Cc1ccccc1)N1C(=O)/C(=C2/C(=O)Nc3cc(Cl)c(Cl)cc32)NC1=S (stereo not shown) [Cmpd 49] |  |  | inhibition at 3 µM (B. Anthracis; 3 μM): 1.73%; inhibition at 10 µM (B. Anthracis; 10 μM): -7.49%; inhibition at 30 µM (B. Anthracis; 30 μM): 97.2%; inhibition at 3 µM (S. MRSA): -7.73%; inhibition at 10 µM (S. MRSA; 10 μM): -20.3%; inhibition at 30 µM (S. MRSA; 30 μM): -26.3% |
| O=C(O)C(Cc1ccccc1)N1C(=O)/C(=C\c2ccc(-c3ccc(Cl)c(Cl)c3)s2)NC1=S (stereo not shown) [Cmpd 50] |  |  | inhibition at 3 µM (B. Anthracis; 3 μM): 1.03%; inhibition at 10 µM (B. Anthracis; 10 μM): 108%; inhibition at 30 µM (B. Anthracis; 30 μM): 94.2%; inhibition at 3 µM (S. MRSA): -14.6%; inhibition at 10 µM (S. MRSA; 10 μM): 14.3%; inhibition at 30 µM (S. MRSA; 30 μM): 35.6% |
| O=C(O)[C@H](Cc1ccccc1)N1C(=O)/C(=C\c2ccc(-c3cc(Cl)cc(Cl)c3)o2)NC1=S [Cmpd 51] |  |  | inhibition at 3 µM (B. Anthracis; 3 μM): -0.16%; inhibition at 10 µM (B. Anthracis; 10 μM): -3.08%; inhibition at 30 µM (B. Anthracis; 30 μM): 99.3%; inhibition at 3 µM (S. MRSA): -0.61%; inhibition at 10 µM (S. MRSA; 10 μM): -7.03%; inhibition at 30 µM (S. MRSA; 30 μM): 85.3% |
| CNC(=O)C(Cc1ccccc1)N1C(=O)/C(=C\c2ccc(-c3ccc(Cl)c(Cl)c3)o2)NC1=S (stereo not shown) [Cmpd 56] | >250 | >250 |  |
| O=C(O)C(Cc1ccccc1)N1C(=O)CNC1=S (stereo not shown) [Cmpd 61] | >250 | >250 |  |
| O=C(O)C(Cc1ccccc1)N1C(=O)/C(=C\c2ccco2)NC1=S (stereo not shown) [Cmpd 62] | >250 | >250 |  |
| O=C1NC(=S)N/C1=C/c1ccc(-c2ccc(Cl)c(Cl)c2)o1 [Cmpd 63] | >250 | 62.5 (≈ 21.2 µg/mL) |  |
| O=C([O-])C(Cc1ccccc1)N1C(=O)/C(=C\c2ccc(-c3ccc(Cl)c(Cl)c3)o2)NC1=S.[Na+] (stereo not shown) [Cmpd 66] | >250 | 7.8 | S. MRSA 3 μM (growth inhibition) (S. MRSA): 0.9 |
| O=C(O)C(Cc1ccccc1)N1C(=O)/C(=C\c2ccc(-c3ccc(Cl)nc3Cl)o2)NC1=S (stereo not shown) [Cmpd 73] | >250 | 125 (≈ 61 µg/mL) |  |
| O=C(O)c1cc(-c2ccc(/C=C3/NC(=S)N(C(Cc4ccccc4)C(=O)O)C3=O)o2)ccc1Cl (stereo not shown) [Cmpd 74] | >250 | >250 |  |
| O=C(O)C(Cc1ccccc1)N1C(=O)/C(=C\c2ccc(-c3ccc(Cl)c(Cl)c3)[nH]2)NC1=S (stereo not shown) [Cmpd 75] | >250 | 62.5 (≈ 30.4 µg/mL) |  |

| Structure (SMILES) | MIC, 25% Serum [1] [µM] | MIC, No Serum [1] [µM] | also measured |
| --- | --- | --- | --- |
| O=C(O)C(Cc1ccccc1)N1C(=O)/C(=C\c2ccc(-c3ccc(Cl)c(Cl)n3)o2)NC1=S (stereo not shown) [Cmpd 76] | >250 | 62.5 (≈ 30.5 µg/mL) |  |
| O=C(O)c1cccc(N2C(=O)/C(=C\c3ccc(-c4ccc(Cl)c(Cl)c4)o3)NC2=S)c1 [Cmpd 77] | >250 | 31.3 (≈ 14.4 µg/mL) |  |
| O=C(O)C(Cc1ccccc1)N1C(=O)/C(=C\c2ncc(-c3ccc(Cl)c(Cl)c3)o2)NC1=S (stereo not shown) [Cmpd 78] | >250 | 250 (≈ 122 µg/mL) |  |
| O=C(O)CN1C(=O)N/C(=C/c2ccc(-c3ccc(Cl)c(Cl)c3)o2)C1=O [Cmpd 79] | >250 | >250 |  |
| O=C(O)C(Cc1ccccc1)N1C(=O)/C(=C\c2ccc(-c3cc(Cl)nc(Cl)c3)o2)NC1=S (stereo not shown) [Cmpd 80] | >250 | 62.5 (≈ 30.5 µg/mL) |  |
| CNC(=O)c1ccc(-c2ccc(/C=C3/NC(=S)N(C(Cc4ccccc4)C(=O)O)C3=O)o2)cc1 (stereo not shown) [Cmpd 81] | >250 | >250 |  |
| CNC(=O)c1ccc(Cl)c(-c2ccc(/C=C3/NC(=S)N(C(Cc4ccccc4)C(=O)O)C3=O)o2)c1Cl (stereo not shown) [Cmpd 82] | >250 | >250 |  |
| CNC(=O)c1cc(-c2ccc(/C=C3/NC(=S)N(C(Cc4ccccc4)C(=O)O)C3=O)o2)ccc1Cl (stereo not shown) [Cmpd 83] | >250 | >250 |  |
| O=C(O)C(Cc1ccccc1)N1C(=O)/C(=C\c2oc(Cl)nc2Cl)NC1=S (stereo not shown) [Cmpd 84] | >250 | >250 |  |
| CNC(=O)c1ccc(-c2ccc(/C=C3/NC(=S)N(C(Cc4ccccc4)C(=O)O)C3=O)o2)cc1Cl (stereo not shown) [Cmpd 85] | >250 | >250 |  |
| C=CCN1C(=O)/C(=C\c2ccc(-c3ccc(Cl)c(Cl)c3)o2)NC1=S [Cmpd 86] | >250 | >250 |  |
| CC(C)[C@H](C(=O)O)N1C(=O)C[C@H](NC(=O)c2cocc2-c2ccc(Cl)cc2)C1=O [Cmpd 87] | >250 | >250 |  |
| C=CCN1C(=O)/C(=C\c2cc(OCC)c(O)c(Br)c2Cl)NC1=S [Cmpd 88] | >250 | >250 |  |
| C=CCN1C(=O)/C(=C\c2cc(OC)c(O)c(Cl)c2Cl)NC1=S [Cmpd 89] | >250 | 250 (≈ 89.8 µg/mL) |  |
| COc1cc(/C=C2/NC(=S)N(C(Cc3ccccc3)C(=O)O)C2=O)c(Cl)c(Cl)c1O (stereo not shown) [Cmpd 90] | >250 | >250 |  |
| O=C(O)C(Cc1ccccc1)N1C(=O)/C(=C\c2cc3cc(Br)ccc3o2)NC1=S (stereo not shown) [Cmpd 91] | >250 | 125 (≈ 58.9 µg/mL) |  |
